Type in all cases: biochemical
For one assay, the target named is T1, BTK-WT (Homo sapiens, UniProt Q06187).
T1 construct: purified from insect cells as a full-length construct containing an N-terminal 6X-His tag; His6 (N); made in house; host or cells: insect cells (baculovirus Sf21 in Method B)
Put plainly: Btk in vitro inhibitory activity (one of Method A TR-FRET, Method B electrophoretic mobility shift, Method C radiometric filter binding). As to conditions: read-out: IC50 BTK-WT.

In a further assay the target is LCK (Homo sapiens, UniProt P06239). Put plainly: Inhibition of a panel of kinases, in vitro HotSpot kinase assay: LCK. Particulars: read-out: IC50 LCK.
Sequence of LCK (P06239 whole entry): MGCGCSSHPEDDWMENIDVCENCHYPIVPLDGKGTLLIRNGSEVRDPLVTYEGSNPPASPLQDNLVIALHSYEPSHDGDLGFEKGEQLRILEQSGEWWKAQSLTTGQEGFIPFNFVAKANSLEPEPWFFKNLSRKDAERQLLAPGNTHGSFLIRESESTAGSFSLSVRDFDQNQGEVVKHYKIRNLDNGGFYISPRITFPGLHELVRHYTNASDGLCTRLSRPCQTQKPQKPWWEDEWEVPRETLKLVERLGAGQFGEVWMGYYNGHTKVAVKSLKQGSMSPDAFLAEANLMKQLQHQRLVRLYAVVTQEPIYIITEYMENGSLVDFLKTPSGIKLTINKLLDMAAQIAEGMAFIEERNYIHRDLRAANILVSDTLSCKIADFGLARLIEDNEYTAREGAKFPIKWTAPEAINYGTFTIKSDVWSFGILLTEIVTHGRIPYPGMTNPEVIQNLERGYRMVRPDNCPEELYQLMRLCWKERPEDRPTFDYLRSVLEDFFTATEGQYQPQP
In a further assay the target is T2, ITK (Homo sapiens, UniProt Q08881).
T2 sequence (Q08881 1-620): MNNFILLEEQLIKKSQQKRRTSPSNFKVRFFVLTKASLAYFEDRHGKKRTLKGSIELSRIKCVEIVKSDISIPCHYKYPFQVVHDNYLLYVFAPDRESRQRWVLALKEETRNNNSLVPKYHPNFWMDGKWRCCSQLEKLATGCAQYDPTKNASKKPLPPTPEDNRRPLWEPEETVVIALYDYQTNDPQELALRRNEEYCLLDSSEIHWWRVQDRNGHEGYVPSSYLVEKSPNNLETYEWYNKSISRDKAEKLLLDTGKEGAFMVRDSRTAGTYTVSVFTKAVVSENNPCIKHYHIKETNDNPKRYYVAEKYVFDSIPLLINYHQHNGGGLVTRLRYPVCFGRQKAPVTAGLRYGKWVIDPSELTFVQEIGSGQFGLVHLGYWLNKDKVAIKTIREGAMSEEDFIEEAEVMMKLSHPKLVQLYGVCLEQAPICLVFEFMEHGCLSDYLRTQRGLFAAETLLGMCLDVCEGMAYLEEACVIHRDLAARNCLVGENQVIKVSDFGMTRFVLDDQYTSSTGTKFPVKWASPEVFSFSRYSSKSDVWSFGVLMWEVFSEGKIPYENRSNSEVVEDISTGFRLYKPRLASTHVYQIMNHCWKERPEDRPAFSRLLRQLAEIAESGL
Kind of assay: Inhibition of a panel of kinases, in vitro HotSpot kinase assay: ITK. Here is the method:
(§1) The degree of inhibition of a panel of kinases is determined using the in vitro HotSpot kinase assay (purified enzymes, ^33P-ATP, an appropriate substrate and 1 μM ATP).

For a further assay, the target named is EGFR (Homo sapiens, UniProt P00533). Kind of assay: Inhibition of a panel of kinases, in vitro HotSpot kinase assay: EGFR. Here is the method: as §1
Sequence of EGFR (P00533 25-1210): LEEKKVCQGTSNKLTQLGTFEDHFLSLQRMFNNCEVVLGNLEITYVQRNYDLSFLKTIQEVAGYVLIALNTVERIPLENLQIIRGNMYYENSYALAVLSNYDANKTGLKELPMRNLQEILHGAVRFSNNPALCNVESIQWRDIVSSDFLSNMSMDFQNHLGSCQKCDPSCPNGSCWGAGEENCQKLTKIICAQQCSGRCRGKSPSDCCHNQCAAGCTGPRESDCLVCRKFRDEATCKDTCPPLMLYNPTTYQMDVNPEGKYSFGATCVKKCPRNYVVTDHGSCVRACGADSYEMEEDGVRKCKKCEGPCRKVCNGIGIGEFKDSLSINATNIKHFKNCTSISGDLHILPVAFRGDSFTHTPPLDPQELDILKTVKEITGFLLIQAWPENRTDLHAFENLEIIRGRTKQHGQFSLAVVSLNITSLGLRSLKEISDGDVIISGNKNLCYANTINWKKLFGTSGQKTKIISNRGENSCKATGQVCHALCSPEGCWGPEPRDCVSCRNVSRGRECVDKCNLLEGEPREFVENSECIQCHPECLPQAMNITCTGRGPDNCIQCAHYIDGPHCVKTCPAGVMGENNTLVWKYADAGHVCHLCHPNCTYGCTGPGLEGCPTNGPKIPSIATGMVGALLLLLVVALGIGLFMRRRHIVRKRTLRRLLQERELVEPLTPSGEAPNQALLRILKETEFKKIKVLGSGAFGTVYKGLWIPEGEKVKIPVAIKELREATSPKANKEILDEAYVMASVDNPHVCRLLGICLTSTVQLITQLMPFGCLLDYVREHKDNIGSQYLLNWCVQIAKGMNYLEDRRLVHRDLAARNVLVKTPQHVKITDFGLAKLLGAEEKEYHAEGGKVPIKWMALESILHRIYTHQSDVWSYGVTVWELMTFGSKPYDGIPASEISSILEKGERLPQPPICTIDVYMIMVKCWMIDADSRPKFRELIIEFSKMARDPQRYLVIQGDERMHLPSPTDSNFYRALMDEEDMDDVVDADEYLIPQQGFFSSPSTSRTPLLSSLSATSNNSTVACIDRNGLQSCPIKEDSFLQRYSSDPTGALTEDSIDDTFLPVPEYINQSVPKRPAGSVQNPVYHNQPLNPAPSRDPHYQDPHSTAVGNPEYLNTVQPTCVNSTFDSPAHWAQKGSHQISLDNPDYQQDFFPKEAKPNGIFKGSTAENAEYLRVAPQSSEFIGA
The target of a further assay is SRC (Homo sapiens, UniProt P12931). Kind of assay: Inhibition of a panel of kinases, in vitro HotSpot kinase assay: SRC. Particulars: D-compounds panel data; 1 μM ATP. On the procedure:
as §1

The next assay has as its target T3, TEC (Homo sapiens, UniProt P42680).
T3 sequence (P42680 1-631): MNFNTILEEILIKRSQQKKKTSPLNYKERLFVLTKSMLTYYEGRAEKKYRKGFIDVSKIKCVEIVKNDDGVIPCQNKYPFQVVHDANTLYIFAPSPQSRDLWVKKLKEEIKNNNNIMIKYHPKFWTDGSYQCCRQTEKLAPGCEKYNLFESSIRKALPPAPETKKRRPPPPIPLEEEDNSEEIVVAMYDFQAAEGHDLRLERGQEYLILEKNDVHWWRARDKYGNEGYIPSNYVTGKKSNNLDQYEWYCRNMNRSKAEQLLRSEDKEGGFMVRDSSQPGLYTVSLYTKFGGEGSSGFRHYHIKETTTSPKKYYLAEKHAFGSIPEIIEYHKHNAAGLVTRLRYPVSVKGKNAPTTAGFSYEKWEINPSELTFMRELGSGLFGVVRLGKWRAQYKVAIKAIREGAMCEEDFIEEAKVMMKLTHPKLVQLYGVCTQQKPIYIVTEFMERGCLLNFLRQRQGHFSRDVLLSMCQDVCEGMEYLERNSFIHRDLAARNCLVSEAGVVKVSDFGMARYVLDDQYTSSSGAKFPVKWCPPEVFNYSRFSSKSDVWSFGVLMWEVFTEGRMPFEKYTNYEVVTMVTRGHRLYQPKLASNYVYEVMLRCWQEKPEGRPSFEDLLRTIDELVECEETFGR
Kind of assay: Inhibition of a panel of kinases, in vitro HotSpot kinase assay: TEC. On the procedure:
as §1

Setting [1] is: D-compounds panel data, 1 μM ATP.

Like-named read-outs stand apart in the source and are kept apart here.

T1 sequence (Q06187 whole entry): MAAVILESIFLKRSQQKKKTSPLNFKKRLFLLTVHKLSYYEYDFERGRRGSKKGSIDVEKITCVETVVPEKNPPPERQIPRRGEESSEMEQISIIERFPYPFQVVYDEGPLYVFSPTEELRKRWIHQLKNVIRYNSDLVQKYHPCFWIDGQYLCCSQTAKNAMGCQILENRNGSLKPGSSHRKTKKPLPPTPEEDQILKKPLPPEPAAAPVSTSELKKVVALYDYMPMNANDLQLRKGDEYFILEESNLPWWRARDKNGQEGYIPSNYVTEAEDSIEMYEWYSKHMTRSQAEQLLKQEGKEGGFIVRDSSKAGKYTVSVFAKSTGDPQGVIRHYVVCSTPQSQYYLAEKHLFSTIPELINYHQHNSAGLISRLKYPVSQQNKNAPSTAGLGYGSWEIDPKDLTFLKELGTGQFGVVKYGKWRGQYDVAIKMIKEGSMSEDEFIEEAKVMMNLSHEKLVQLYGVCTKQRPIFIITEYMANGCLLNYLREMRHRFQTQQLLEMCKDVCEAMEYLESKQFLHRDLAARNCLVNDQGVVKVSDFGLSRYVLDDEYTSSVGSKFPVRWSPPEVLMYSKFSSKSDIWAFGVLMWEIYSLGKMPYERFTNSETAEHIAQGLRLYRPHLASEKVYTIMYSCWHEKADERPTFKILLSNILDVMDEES
Sequence of SRC (P12931 whole entry): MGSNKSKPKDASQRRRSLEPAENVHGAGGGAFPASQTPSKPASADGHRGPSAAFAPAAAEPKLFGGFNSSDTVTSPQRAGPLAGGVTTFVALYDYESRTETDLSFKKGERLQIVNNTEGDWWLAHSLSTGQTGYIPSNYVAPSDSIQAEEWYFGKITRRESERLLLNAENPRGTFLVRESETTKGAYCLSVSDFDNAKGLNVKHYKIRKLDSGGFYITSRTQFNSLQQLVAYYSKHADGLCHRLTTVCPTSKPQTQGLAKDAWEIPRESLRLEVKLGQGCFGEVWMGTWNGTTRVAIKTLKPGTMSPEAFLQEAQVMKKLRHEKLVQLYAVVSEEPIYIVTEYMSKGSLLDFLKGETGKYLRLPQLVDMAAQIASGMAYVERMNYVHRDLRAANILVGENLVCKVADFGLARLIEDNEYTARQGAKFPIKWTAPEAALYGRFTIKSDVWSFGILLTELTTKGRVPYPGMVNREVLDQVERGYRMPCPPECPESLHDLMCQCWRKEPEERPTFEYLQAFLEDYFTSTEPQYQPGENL

A word on the IC50: it is the point on the concentration scale where inhibition reaches its midpoint. With `C[C@@H]1[C@H](NC(=O)c2ccc(C3CC3)cc2)CCCN1c1cnc(C(N)=O)c(Nc2ccc(N3CCCCC3)cc2)n1` [Example D-37, 5-[(2R,3R)-3-(4-cyclopropylbenzamido)-2-methylpiperidin-1-yl]-3-{[4-(piperidin-1-yl)phenyl]amino}pyrazine-2-carboxamide], the IC50 lay within 10 to 100 nM at BTK-WT (D-compounds panel data); 100 to 1000 nM on LCK (setting [1]); 1000 to 10000 nM at ITK (setting [1]); 100 to 1000 nM against EGFR (setting [1]); 1000 to 10000 nM on SRC; 10 to 100 nM at TEC (setting [1]).
For `C=CC(=O)N1CCC[C@@H](Nc2cnc(C(N)=O)c(Nc3ccc(C4(C)CCN(C5CCCC5)CC4)cc3)n2)[C@H]1C` [Example E-100, 5-((2R,3R)-1-acryloyl-2-methylpiperidin-3-ylamino)-3-(4-(1-cyclopentyl-4-methylpiperidin-4-yl)phenylamino)pyrazine-2-carboxamide], the IC50 is at most 10 nM on BTK-WT (E compounds, Table 17); 10 to 100 nM on LCK (E compounds, Table 17); at most 10 nM against ITK (E compounds, Table 17); at most 10 nM at EGFR (E compounds, Table 17); at most 10 nM against TEC (E compounds, Table 17).
In the case of `C=CC(=O)N1CCC[C@@H](Nc2nnc(C(N)=O)c(Nc3ccc(-c4nn[nH]n4)cc3)n2)C1` [Example E-64, (R)-5-(4-(2H-tetrazol-5-yl)phenylamino)-3-(1-acryloylpiperidin-3-ylamino)-1,2,4-triazine-6-carboxamide], the concentration for half-maximal inhibition (IC50) on BTK-WT (E compounds, Table 17) was at most 10 nM; on ITK (E compounds, Table 17), 10 to 100 nM; against EGFR (E compounds, Table 17), at most 10 nM; against TEC (E compounds, Table 17), at most 10 nM.
In the case of `C=CC(=O)N1CCC[C@@H](Nc2nnc(C(N)=O)c(Nc3ccc(C4(C#N)CCCC4)cc3)n2)C1` [Example E-46, (R)-3-(1-acryloylpiperidin-3-ylamino)-5-(4-(1-cyanocyclopentyl)phenylamino)-1,2,4-triazine-6-carboxamide], the IC50 is at most 10 nM on BTK-WT (E compounds, Table 17); at most 10 nM against ITK (E compounds, Table 17); at most 10 nM at EGFR (E compounds, Table 17); at most 10 nM against TEC (E compounds, Table 17).
For `C=CC(=O)N1CCC[C@@H](Nc2nnc(C(N)=O)c(Nc3ccc(-n4nccn4)cc3)n2)C1` [Example E-67, (R)-5-(4-(2H-1,2,3-triazol-2-yl)phenylamino)-3-(1-acryloylpiperidin-3-ylamino)-1,2,4-triazine-6-carboxamide], the IC50 on BTK-WT (E compounds, Table 17) was at most 10 nM; at LCK (E compounds, Table 17) it was 100 to 1000 nM; on ITK (E compounds, Table 17) it was 10 to 100 nM; against EGFR (E compounds, Table 17), 10 to 100 nM; against TEC (E compounds, Table 17), at most 10 nM.
For the molecule `C=CC(=O)N1CCC[C@@H](Nc2nnc(C(N)=O)c(Nc3ccc4ncccc4c3)n2)C1` [Example E-68, (R)-3-(1-acryloylpiperidin-3-ylamino)-5-(quinolin-6-ylamino)-1,2,4-triazine-6-carboxamide], the IC50 on BTK-WT (E compounds, Table 17) was at most 10 nM; on LCK (E compounds, Table 17), 100 to 1000 nM; on ITK (E compounds, Table 17) it was at most 10 nM; at EGFR (E compounds, Table 17), at most 10 nM; against TEC (E compounds, Table 17) it was at most 10 nM.
On to `C=CC(=O)N1CCC[C@@H](Nc2nnc(C(N)=O)c(Nc3ccc(S(C)(=O)=O)cc3)n2)C1` [Example E-47, (R)-3-(1-acryloylpiperidin-3-ylamino)-5-(4-(methylsulfonyl)phenyl-amino)-1,2,4-triazine-6-carboxamide], for which the 50% inhibitory concentration (IC50) at BTK-WT (E compounds, Table 17) is at most 10 nM; against ITK (E compounds, Table 17) it was at most 10 nM; against EGFR (E compounds, Table 17) it was at most 10 nM; against TEC (E compounds, Table 17) it was at most 10 nM.
For the molecule `C=CC(=O)N1CC[C@@H](N(C)c2cnc(C(N)=O)c(Nc3ccc(-c4ncccn4)cc3)n2)C1` [Example E-117, (R)-5-((1-acryloylpyrrolidin-3-yl)(methyl)amino)-3-(4-(pyrimidin-2-yl)phenylamino)pyrazine-2-carboxamide], the IC50 was at most 10 nM at BTK-WT (E compounds, Table 17); at most 10 nM on ITK (E compounds, Table 17); 10 to 100 nM at EGFR (E compounds, Table 17); at most 10 nM against TEC (E compounds, Table 17).
On to `C=CC(=O)N1CC[C@@H](N(C)c2cnc(C(N)=O)c(Nc3ccc(C4CCN(C)CC4)cc3)n2)C1` [Example E-115, (R)-5-((1-acryloylpyrrolidin-3-yl)(methyl)amino)-3-(4-(1-methylpiperidin-4-yl)phenylamino)pyrazine-2-carboxamide], for which the IC50 at BTK-WT (E compounds, Table 17) was at most 10 nM; against ITK (E compounds, Table 17), at most 10 nM; on EGFR (E compounds, Table 17) it was at most 10 nM; against TEC (E compounds, Table 17), at most 10 nM.
Regarding `C=CC(=O)N1CC[C@@H](N(C)c2cnc(C(N)=O)c(Nc3cnn(C)c3)n2)C1` [Example E-119, (R)-5-((1-acryloylpyrrolidin-3-yl)(methyl)amino)-3-(1-methyl-1H-pyrazol-4-ylamino)pyrazine-2-carboxamide], the IC50 at BTK-WT (E compounds, Table 17) is at most 10 nM; against ITK (E compounds, Table 17) it was at most 10 nM; at EGFR (E compounds, Table 17), 10 to 100 nM; against TEC (E compounds, Table 17) it was at most 10 nM.
With `C=CC(=O)N[C@@H]1CCCN(c2cnc(C(N)=O)c(Nc3cnn(C)c3)n2)[C@@H]1C` [Example E-98, 5-((2R,3R)-3-acrylamido-2-methylpiperidin-1-yl)-3-(1-methyl-1H-pyrazol-4-ylamino)pyrazine-2-carboxamide], the IC50 at BTK-WT (E compounds, Table 17) was at most 10 nM; at ITK (E compounds, Table 17), 100 to 1000 nM; against EGFR (E compounds, Table 17) it was 100 to 1000 nM; against TEC (E compounds, Table 17), at most 10 nM.
As for `C=CC(=O)N1CCC[C@@H](Nc2nnc(C(N)=O)c(Nc3cccc(-n4nccn4)c3)n2)C1` [Example E-61, (R)-5-(3-(2H-1,2,3-triazol-2-yl)phenylamino)-3-(1-acryloylpiperidin-3-ylamino)-1,2,4-triazine-6-carboxamide], the 50% inhibitory concentration (IC50) at BTK-WT (E compounds, Table 17) was at most 10 nM; at LCK (E compounds, Table 17), 100 to 1000 nM; on ITK (E compounds, Table 17), 10 to 100 nM; against EGFR (E compounds, Table 17) it was 10 to 100 nM; against TEC (E compounds, Table 17), at most 10 nM.
As for `C=CC(=O)N1CCC[C@@H](N(C)c2cnc(C(N)=O)c(Nc3cc(C)ns3)n2)C1` [Example E-124, (R)-5-((1-acryloylpiperidin-3-yl)(methyl)amino)-3-(3-methylisothiazol-5-ylamino)pyrazine-2-carboxamide], the IC50 at BTK-WT (E compounds, Table 17) was at most 10 nM; on ITK (E compounds, Table 17) it was at most 10 nM; against EGFR (E compounds, Table 17), 10 to 100 nM; at TEC (E compounds, Table 17), at most 10 nM.
Turning to `C=CC(=O)N1CCC[C@@H](Nc2cnc(C(N)=O)c(Nc3ccc(C4CCN(C5CCCC5)CC4)cc3)n2)[C@H]1C` [Example E-99, 5-((2R,3R)-1-acryloyl-2-methylpiperidin-3-ylamino)-3-(4-(1-cyclopentylpiperidin-4-yl)phenylamino)pyrazine-2-carboxamide], the IC50 at BTK-WT (E compounds, Table 17) is at most 10 nM; at LCK (E compounds, Table 17), 10 to 100 nM; at ITK (E compounds, Table 17), at most 10 nM; on EGFR (E compounds, Table 17) it was at most 10 nM; at TEC (E compounds, Table 17) it was at most 10 nM.
On to `C=CC(=O)N1CC[C@@H](N(C)c2cnc(C(N)=O)c(Nc3ccc(-n4nccn4)cc3)n2)C1` [Example E-116, (R)-3-(4-(2H-1,2,3-triazol-2-yl)phenylamino)-5-((1-acryloylpyrrolidin-3-yl)(methyl)amino) pyrazine-2-carboxamide], for which the IC50 at BTK-WT (E compounds, Table 17) is at most 10 nM; at ITK (E compounds, Table 17) it was at most 10 nM; on EGFR (E compounds, Table 17), 10 to 100 nM; on TEC (E compounds, Table 17), at most 10 nM.
